Test results as given in the supplement of paper PMC11061612.

Assays:
U-698-M [1] = assay: combination Emax (second highest fraction inhibited in the dose matrix, 72 h); higher = more inhibition; details: B-Cell Non-Hodgkin's Lymphoma
Method in brief: (§1)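 Bliss excess equals the observed combination effect minus the expected value EA + EB − EA·EB, where EA and EB are the effects of each agent alone. Combination Emax is the second-highest inhibition within the matrix. Inhibition was scaled from CellTiter-Glo 2.0 luminescence, with 0 set by vehicle wells and 1 by blank wells, after 72 hours of two-drug dosing of cells plated in 1536-well plates.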

U-698-M [2] = assay: Bliss excess, mean over the matrix (fraction); higher = more synergy; details: U-[…], B-Cell Non-Hodgkin's Lymphoma
Method in brief: as §1

[3] = first compound max 1 µM, partner max 1 µM
[4] = first compound max 1 µM, partner max 1 µM, 7x7
[5] = first compound max 1 µM, partner max 10 µM, 7x7
[6] = first compound max 3 µM, partner max 3 µM
[7] = first compound max 1 µM, partner max 0.3 µM
[8] = first compound max 1 µM, partner max 10 µM
[9] = first compound max 1 µM, partner max 3 µM, 7x7
[10] = first compound max 1 µM, partner max 0.3 µM, 7x7

CN(C)CCCOc1ccc(-c2ccc3ncc4c(c3c2)n(C2CCOCC2)c(=O)n4C)cn1 [AZD0156] + C=CCn1c(=O)c2cnc(Nc3ccc(N4CCN(C)CC4)cc3)nc2n1-c1cccc(C(C)(C)O)n1 [AZD1775]
combination Emax (U-698-M [1]; [3]): 0.984 | Bliss excess (U-698-M [2]; [3]): -0.0399

CN(C)CCCOc1ccc(-c2ccc3ncc4c(c3c2)n(C2CCOCC2)c(=O)n4C)cn1 [AZD0156] + CCN(CCO)CCCOc1ccc2c(Nc3cc(CC(=O)Nc4cccc(F)c4)[nH]n3)ncnc2c1 [AZD2811]
combination Emax (U-698-M [1]; [4]): 0.168 | Bliss excess (U-698-M [2]; [4]): -0.014

CN(C)CCCOc1ccc(-c2ccc3ncc4c(c3c2)n(C2CCOCC2)c(=O)n4C)cn1 [AZD0156] + C[C@@H]1COCCN1C2=NC(=NC(=C2)C3(CC3)[S@](=N)(=O)C)C4=C5C=CNC5=NC=C4 [AZD6738]
combination Emax (U-698-M [1]; [5]): 0.978 | Bliss excess (U-698-M [2]; [5]): 0.0473

CN(C)CCCOc1ccc(-c2ccc3ncc4c(c3c2)n(C2CCOCC2)c(=O)n4C)cn1 [AZD0156] + O=C(c1cc(Cc2n[nH]c(=O)c3ccccc23)ccc1F)N1CCN(C(=O)C2CC2)CC1 [Olaparib]
combination Emax (U-698-M [1]; [6]): 0.378 | Bliss excess (U-698-M [2]; [6]): 0.0153

C=CCn1c(=O)c2cnc(Nc3ccc(N4CCN(C)CC4)cc3)nc2n1-c1cccc(C(C)(C)O)n1 [AZD1775] + C1CN(CCC1(C(=O)N[C@@H](CCO)C2=CC=C(C=C2)Cl)N)C3=NC=NC4=C3C=CN4 [Capivasertib]
combination Emax (U-698-M [1]; [6]): 0.959 | Bliss excess (U-698-M [2]; [6]): -0.0654

C=CCn1c(=O)c2cnc(Nc3ccc(N4CCN(C)CC4)cc3)nc2n1-c1cccc(C(C)(C)O)n1 [AZD1775] + CCc1c2c(nc3ccc(O)cc13)-c1cc3c(c(=O)n1C2)COC(=O)[C@]3(O)CC [SN-38]
combination Emax (U-698-M [1]; first compound max 1 µM, partner max 0.3 µM, may be a limit of the assay): 1 | Bliss excess (U-698-M [2]; [7]): 0.0364

C=CCn1c(=O)c2cnc(Nc3ccc(N4CCN(C)CC4)cc3)nc2n1-c1cccc(C(C)(C)O)n1 [AZD1775] + C[C@@H]1COCCN1C2=NC(=NC(=C2)C3(CC3)[S@](=N)(=O)C)C4=C5C=CNC5=NC=C4 [AZD6738]
combination Emax (U-698-M [1]; first compound max 1 µM, partner max 10 µM, may be a limit of the assay): 1 | Bliss excess (U-698-M [2]; [8]): 0.0479

C=CCn1c(=O)c2cnc(Nc3ccc(N4CCN(C)CC4)cc3)nc2n1-c1cccc(C(C)(C)O)n1 [AZD1775] + Nc1ccn([C@@H]2O[C@H](CO)[C@@H](O)C2(F)F)c(=O)n1 [Gemcitabine]
combination Emax (U-698-M [1]; [7]): 0.956 | Bliss excess (U-698-M [2]; [7]): 0.116

C=CCn1c(=O)c2cnc(Nc3ccc(N4CCN(C)CC4)cc3)nc2n1-c1cccc(C(C)(C)O)n1 [AZD1775] + O=C(c1cc(Cc2n[nH]c(=O)c3ccccc23)ccc1F)N1CCN(C(=O)C2CC2)CC1 [Olaparib]
combination Emax (U-698-M [1]; [8]): 0.967 | Bliss excess (U-698-M [2]; [8]): -0.0077

CCN(CCO)CCCOc1ccc2c(Nc3cc(CC(=O)Nc4cccc(F)c4)[nH]n3)ncnc2c1 [AZD2811] + C=CCn1c(=O)c2cnc(Nc3ccc(N4CCN(C)CC4)cc3)nc2n1-c1cccc(C(C)(C)O)n1 [AZD1775]
combination Emax (U-698-M [1]; [3]): 0.956 | Bliss excess (U-698-M [2]; [3]): -0.0493

CCN(CCO)CCCOc1ccc2c(Nc3cc(CC(=O)Nc4cccc(F)c4)[nH]n3)ncnc2c1 [AZD2811] + C[C@@H]1COCCN1C2=NC(=NC(=C2)C3(CC3)[S@](=N)(=O)C)C4=C5C=CNC5=NC=C4 [AZD6738]
combination Emax (U-698-M [1]; [5]): 0.956 | Bliss excess (U-698-M [2]; [5]): 0.0016

CCN(CCO)CCCOc1ccc2c(Nc3cc(CC(=O)Nc4cccc(F)c4)[nH]n3)ncnc2c1 [AZD2811] + O=C(c1cc(Cc2n[nH]c(=O)c3ccccc23)ccc1F)N1CCN(C(=O)C2CC2)CC1 [Olaparib]
combination Emax (U-698-M [1]; [5]): 0.479 | Bliss excess (U-698-M [2]; [5]): 0.0384

CN(CCO)CC[C@H](CSc1ccccc1)Nc1ccc(S(=O)(=O)NC(=O)c2ccc(N3CCC([C@@H](O)c4ccccc4-c4ccc(Cl)cc4)CC3)cc2)cc1S(=O)(=O)C(F)(F)F [AZD4320] + C1CN(CCC1(C(=O)N[C@@H](CCO)C2=CC=C(C=C2)Cl)N)C3=NC=NC4=C3C=CN4 [Capivasertib]
combination Emax (U-698-M [1]; [9]): 0.272 | Bliss excess (U-698-M [2]; [9]): 0.0056

CN(CCO)CC[C@H](CSc1ccccc1)Nc1ccc(S(=O)(=O)NC(=O)c2ccc(N3CCC([C@@H](O)c4ccccc4-c4ccc(Cl)cc4)CC3)cc2)cc1S(=O)(=O)C(F)(F)F [AZD4320] + C=CCn1c(=O)c2cnc(Nc3ccc(N4CCN(C)CC4)cc3)nc2n1-c1cccc(C(C)(C)O)n1 [AZD1775]
combination Emax (U-698-M [1]; [3]): 0.931 | Bliss excess (U-698-M [2]; [3]): -0.0221

CN(CCO)CC[C@H](CSc1ccccc1)Nc1ccc(S(=O)(=O)NC(=O)c2ccc(N3CCC([C@@H](O)c4ccccc4-c4ccc(Cl)cc4)CC3)cc2)cc1S(=O)(=O)C(F)(F)F [AZD4320] + CC(=O)O[C@H]1C(=O)[C@@]2(C)[C@H]([C@H](OC(=O)c3ccccc3)[C@]3(O)C[C@H](OC(=O)[C@H](O)[C@@H](NC(=O)c4ccccc4)c4ccccc4)C(C)=C1C3(C)C)[C@]1(OC(C)=O)CO[C@@H]1C[C@@H]2O [Paclitaxel]
combination Emax (U-698-M [1]; first compound max 1 µM, partner max 3 µM, 7x7, may be a limit of the assay): 1 | Bliss excess (U-698-M [2]; [9]): -0.0109

CN(CCO)CC[C@H](CSc1ccccc1)Nc1ccc(S(=O)(=O)NC(=O)c2ccc(N3CCC([C@@H](O)c4ccccc4-c4ccc(Cl)cc4)CC3)cc2)cc1S(=O)(=O)C(F)(F)F [AZD4320] + CCN(CCO)CCCOc1ccc2c(Nc3cc(CC(=O)Nc4cccc(F)c4)[nH]n3)ncnc2c1 [AZD2811]
combination Emax (U-698-M [1]; [4]): 0.138 | Bliss excess (U-698-M [2]; [4]): -0.0275

CN(CCO)CC[C@H](CSc1ccccc1)Nc1ccc(S(=O)(=O)NC(=O)c2ccc(N3CCC([C@@H](O)c4ccccc4-c4ccc(Cl)cc4)CC3)cc2)cc1S(=O)(=O)C(F)(F)F [AZD4320] + CN(C)CCCOc1ccc(-c2ccc3ncc4c(c3c2)n(C2CCOCC2)c(=O)n4C)cn1 [AZD0156]
combination Emax (U-698-M [1]; [4]): 0.183 | Bliss excess (U-698-M [2]; [4]): -0.0291

CN(CCO)CC[C@H](CSc1ccccc1)Nc1ccc(S(=O)(=O)NC(=O)c2ccc(N3CCC([C@@H](O)c4ccccc4-c4ccc(Cl)cc4)CC3)cc2)cc1S(=O)(=O)C(F)(F)F [AZD4320] + CS(=O)(=O)CCNCc1ccc(-c2ccc3ncnc(Nc4ccc(OCc5cccc(F)c5)c(Cl)c4)c3c2)o1 [Lapatinib]
combination Emax (U-698-M [1]; [5]): 0.551 | Bliss excess (U-698-M [2]; [5]): -0.0415

CN(CCO)CC[C@H](CSc1ccccc1)Nc1ccc(S(=O)(=O)NC(=O)c2ccc(N3CCC([C@@H](O)c4ccccc4-c4ccc(Cl)cc4)CC3)cc2)cc1S(=O)(=O)C(F)(F)F [AZD4320] + C[C@@H]1COCCN1C2=NC(=NC(=C2)C3(CC3)[S@](=N)(=O)C)C4=C5C=CNC5=NC=C4 [AZD6738]
combination Emax (U-698-M [1]; [5]): 0.773 | Bliss excess (U-698-M [2]; [5]): -0.0427

CN(CCO)CC[C@H](CSc1ccccc1)Nc1ccc(S(=O)(=O)NC(=O)c2ccc(N3CCC([C@@H](O)c4ccccc4-c4ccc(Cl)cc4)CC3)cc2)cc1S(=O)(=O)C(F)(F)F [AZD4320] + C[C@@H](Nc1cc(F)cc(F)c1)c1cc(C(=O)N(C)C)cc2c(=O)cc(N3CCOCC3)oc12 [AZD8186]
combination Emax (U-698-M [1]; [9]): 0.348 | Bliss excess (U-698-M [2]; [9]): 0.0074

CN(CCO)CC[C@H](CSc1ccccc1)Nc1ccc(S(=O)(=O)NC(=O)c2ccc(N3CCC([C@@H](O)c4ccccc4-c4ccc(Cl)cc4)CC3)cc2)cc1S(=O)(=O)C(F)(F)F [AZD4320] + Cc1cc2ncnn2cc1Nc1ncc2c(n1)n(C1CCOCC1)c(=O)n2C [AZD7648]
combination Emax (U-698-M [1]; [5]): 0.415 | Bliss excess (U-698-M [2]; [5]): -0.016

CN(CCO)CC[C@H](CSc1ccccc1)Nc1ccc(S(=O)(=O)NC(=O)c2ccc(N3CCC([C@@H](O)c4ccccc4-c4ccc(Cl)cc4)CC3)cc2)cc1S(=O)(=O)C(F)(F)F [AZD4320] + Cn1cnc2c(F)c(Nc3ccc(Br)cc3Cl)c(C(=O)NOCCO)cc21 [Selumetinib]
combination Emax (U-698-M [1]; [9]): 0.42 | Bliss excess (U-698-M [2]; [9]): 0.058

CN(CCO)CC[C@H](CSc1ccccc1)Nc1ccc(S(=O)(=O)NC(=O)c2ccc(N3CCC([C@@H](O)c4ccccc4-c4ccc(Cl)cc4)CC3)cc2)cc1S(=O)(=O)C(F)(F)F [AZD4320] + Nc1ccn([C@@H]2O[C@H](CO)[C@@H](O)C2(F)F)c(=O)n1 [Gemcitabine]
combination Emax (U-698-M [1]; [10]): 0.595 | Bliss excess (U-698-M [2]; [10]): -0.0159

COc1nnc2ccc(N3CCC(c4ccc(OCCN5CCN(C)C(=O)[C@H]5C)cc4)CC3)nn12 [AZD5153] + C=CCn1c(=O)c2cnc(Nc3ccc(N4CCN(C)CC4)cc3)nc2n1-c1cccc(C(C)(C)O)n1 [AZD1775]
combination Emax (U-698-M [1]; [3]): 0.961 | Bliss excess (U-698-M [2]; [3]): -0.0574

COc1nnc2ccc(N3CCC(c4ccc(OCCN5CCN(C)C(=O)[C@H]5C)cc4)CC3)nn12 [AZD5153] + CC1(C)CCC(CN2CCN(c3ccc(C(=O)NS(=O)(=O)c4ccc(NCC5CCOCC5)c([N+](=O)[O-])c4)c(Oc4cnc5[nH]ccc5c4)c3)CC2)=C(c2ccc(Cl)cc2)C1 [Venetoclax]
combination Emax (U-698-M [1]; [4]): 0.671 | Bliss excess (U-698-M [2]; [4]): -0.0463

COc1nnc2ccc(N3CCC(c4ccc(OCCN5CCN(C)C(=O)[C@H]5C)cc4)CC3)nn12 [AZD5153] + CCN(CCO)CCCOc1ccc2c(Nc3cc(CC(=O)Nc4cccc(F)c4)[nH]n3)ncnc2c1 [AZD2811]
combination Emax (U-698-M [1]; [4]): 0.673 | Bliss excess (U-698-M [2]; [4]): -0.0563

Cc1c2c(nn1C)CSCc1cc(n(C)n1)CSc1cc(c3ccccc3c1)OCCCc1c(C(=O)O)n(C)c3c-2c(Cl)ccc13 [AZD5991] + C=CCn1c(=O)c2cnc(Nc3ccc(N4CCN(C)CC4)cc3)nc2n1-c1cccc(C(C)(C)O)n1 [AZD1775]
combination Emax (U-698-M [1]; first compound max 1 µM, partner max 1 µM, may be a limit of the assay): 1
